This assay has as its system Corynespora cassiicola. The assay can be described thus: Corynespora cassiicola liquid culture growth inhibition (microtiter plate, PDB). Format: cell-based. To be noted: photometric at 620 nm after 3-4 days at 24 C, compared to untreated control. The method, then:
Conidia of the fungus from cryogenic storage were directly mixed into nutrient broth (PDB potato dextrose broth). A DMSO solution of the test compounds was placed into a microtiter plate (96-well format) and the nutrient broth containing the fungal spores was added to it. The test plates were incubated at 24 C and the inhibition of growth (% control of Corynespora cassiicola) was determined photometrically after 3-4 days at 620 nm. The activity of a compound is derived by comparing the inhibition of growth in the treated test solution to the growth in the untreated check. The concentration of the compounds was 6.7, 2.2, 0.74, 0.25, 0.082 and 0.027 ppm.

SMILES strings stand for the structures.

One may read the inhibition as the change of the read-out against control, counted positive when it falls. Lower therefore signals a weak effect.

For the compound `CC(C)CC(C)(Cc1ccccc1)NC(=O)c1cnc2c(F)cccc2c1` (centres unmarked) [Compound 2], the inhibition at 6.7 ppm was not below 70%.
With `C=C(Cl)CC(C)(Cc1ccccc1)NC(=O)c1cnc2c(F)cccc2c1` (centres unmarked) [Compound 4] the figure was not below 70%; with `CC(C)CC(C)(Cc1cccc(F)c1)NC(=O)c1cnc2c(F)cccc2c1` (centres unmarked) [Compound 6], not below 70%; with `CC(C)C[C@](C)(Cc1ccccc1)NC(=O)c1cnc2c(F)cccc2c1` [Compound 9], not below 70%.
With `C[C@](Cc1ccccc1)(CC(F)(F)F)NC(=O)c1cnc2c(F)cccc2c1` [Compound 11] the figure was not below 70%; with `C[C@@](Cc1ccccc1)(CC(F)(F)F)NC(=O)c1cnc2c(F)cccc2c1` [Compound 12], not below 70%; with `C=C(Cl)C[C@](C)(Cc1ccccc1)NC(=O)c1cnc2c(F)cccc2c1` [Compound 13], not below 70%.
With `CC(C)C[C@@](C)(Cc1ccccc1)NC(=O)c1cnc2c(F)c(F)ccc2c1` [Compound 16] the figure was not below 70%.

(Values after patent US20230098995A1 (SYNGENTA CROP PROTECTION AG, priority 2020, published 2023).)
